# Assay results taken from patent publication US9676751B2, “2-amino-3-ester-pyridl orexin receptor antagonists” (MERCK SHARP & DOHME CORP., priority 2013, dated 2017).
# What was measured:
# human orexin-2 receptor = target: T1, human orexin-2 receptor (Homo sapiens, UniProt O43614); assay: FLIPR Ca2+ Flux Assay, CHO cells expressing the human orexin-2 receptor; type: cell-based; conditions: agonist 70 pM Ala-6,12 orexin-A, read-out: hOX2R FLIPR IC50
# T1 construct: expressed in transfected cells; host or cells: CHO cells
# T1 sequence (O43614 1-444): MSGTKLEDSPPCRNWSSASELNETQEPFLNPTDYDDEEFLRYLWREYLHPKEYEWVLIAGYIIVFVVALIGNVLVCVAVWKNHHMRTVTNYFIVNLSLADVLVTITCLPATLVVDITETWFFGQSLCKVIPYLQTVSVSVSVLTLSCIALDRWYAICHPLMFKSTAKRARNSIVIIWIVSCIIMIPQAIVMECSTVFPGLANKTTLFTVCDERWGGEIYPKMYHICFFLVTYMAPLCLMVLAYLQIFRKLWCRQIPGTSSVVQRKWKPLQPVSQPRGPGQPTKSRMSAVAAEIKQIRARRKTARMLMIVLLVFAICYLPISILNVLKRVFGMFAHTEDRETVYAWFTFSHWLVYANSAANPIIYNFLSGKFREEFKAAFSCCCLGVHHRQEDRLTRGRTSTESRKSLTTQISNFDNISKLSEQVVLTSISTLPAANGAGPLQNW
# Procedure: The utility of the compounds in accordance with the present invention as orexin receptor OX1R and/or OX2R antagonists may be readily determined without undue experimentation by methodology well known in the art, including the “FLIPR Ca^2+ Flux Assay” (Okumura et al., Biochem. Biophys. Res. Comm. 280:976-981, 2001). In a typical experiment the OX1 and OX2 receptor antagonistic activity of the compounds of the present invention was determined in accordance with the following experimental method. For intracellular calcium measurements, Chinese hamster ovary (CHO) cells expressing the rat orexin-1 receptor or the human orexin-2 receptor, are grown in Iscove's modified DMEM containing 2 mM L-glutamine, […], 1% hypoxanthine-thymidine supplement, 100 U/ml penicillin, 100 μg/ml streptomycin and 10% heat-inactivated fetal calf serum (FCS). The cells are seeded at 20,000 cells/well into Becton-Dickinson black 384-well clear bottom sterile plates coated with poly-D-lysine. All reagents were from GIBCO-Invitrogen Corp. The seeded plates are incubated overnight at 37° C. and 5% CO2. Ala-6,12 human orexin-A as the agonist is prepared as a 1 mM stock solution in 1% bovine serum albumin (BSA) and diluted in assay buffer (HBSS containing 20 mM HEPES, 0.1% BSA and 2.5 mM probenecid, pH7.4) for use in the assay at a final concentration of 70 pM. Test compounds are prepared as 10 mM stock solution in DMSO, then diluted in 384-well plates, first in DMSO, then assay buffer. On the day of the assay, cells are washed 3 times with 100 μl assay buffer and then incubated for 60 min (37° C., 5% CO2) in 60 μl assay buffer containing 1 μM Fluo-4AM ester, 0.02% pluronic acid, and 1% BSA. The dye loading solution is then aspirated and cells are washed 3 times with 100 μl assay buffer. 30 μl of that same buffer is left in each well. Within the Fluorescent Imaging Plate Reader (FLIPR, Molecular Devices), test compounds are added to the plate in a volume of 25 μl, incubated for 5 min and finally 25 μl of agonist is added. Fluorescence is measured for each well at 1 second intervals for 5 minutes and the height of each fluorescence peak is compared to the height of the fluorescence peak induced by 70 pM Ala-6,12 orexin-A with buffer in place of antagonist. For each antagonist, IC50 value (the concentration of compound needed to inhibit 50% of the agonist response) is determined. Alternatively, compound potency can be assessed by a radioligand binding assay (described in Bergman et. al. Bioorg. Med. Chem. Lett. 2008, 18, 1425-1430) in which the inhibition constant (Ki) is determined in membranes prepared from CHO cells expressing either the OX1 or OX2 receptor. The intrinsic orexin receptor antagonist activity of a compound which may be used in the present invention may be determined by these assays.
# hOX1R = target: T2, hOX1R (Homo sapiens, UniProt O43613); assay: FLIPR Ca2+ Flux Assay, CHO cells expressing the orexin-1 receptor; type: cell-based; conditions: agonist 70 pM Ala-6,12 orexin-A
# T2 construct: expressed in transfected cells; host or cells: CHO cells
# T2 sequence (O43613 1-425): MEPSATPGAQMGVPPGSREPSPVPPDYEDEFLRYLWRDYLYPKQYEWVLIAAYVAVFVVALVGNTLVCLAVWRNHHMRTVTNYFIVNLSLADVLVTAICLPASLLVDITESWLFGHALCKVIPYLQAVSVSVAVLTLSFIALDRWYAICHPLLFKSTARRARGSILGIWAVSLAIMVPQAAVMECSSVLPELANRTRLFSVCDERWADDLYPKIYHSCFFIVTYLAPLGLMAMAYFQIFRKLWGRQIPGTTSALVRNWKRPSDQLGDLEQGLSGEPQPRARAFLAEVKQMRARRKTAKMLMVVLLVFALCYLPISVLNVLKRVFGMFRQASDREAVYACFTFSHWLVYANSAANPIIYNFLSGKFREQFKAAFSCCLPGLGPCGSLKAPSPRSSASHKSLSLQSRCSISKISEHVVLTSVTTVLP
Structure (SMILES),IC50 (human orexin-2 receptor),IC50 (hOX1R)
"COC(=O)c1c(OC)ccnc1N[C@@H]1CC[C@@H](C)N(C(=O)c2c(F)cccc2-n2nccn2)C1 [Example 6, methyl 2-{[(3R,6R)-1-{[2-fluoro-6-(2H-1,2,3-triazol-2-yl)phenyl]carbonyl}-6-methylpiperidin-3-yl]amino}-4-methoxypyridine-3-carboxylate]",54 nM,154 nM
"COC(=O)c1c(OC)ccnc1N[C@@H]1CC[C@@H](C)N(C(=O)c2ccccc2-c2nc(C)no2)C1 [Example 7, methyl 4-methoxy-2-{[(3R,6R)-6-methyl-1-{[2-(3-methyl-1,2,4-oxadiazol-5-yl)phenyl]carbonyl}piperidin-3-yl]amino}pyridine-3-carboxylate]",74 nM,309 nM
"COC(=O)c1c(OC)ccnc1N[C@@H]1CC[C@@H](C)N(C(=O)c2c(F)cccc2-c2nc(C)no2)C1 [Example 8, methyl 2-{[(3R,6R)-1-{[2-fluoro-6-(3-methyl-1,2,4-oxadiazol-5-yl)phenyl]carbonyl}-6-methylpiperidin-3-yl]amino}-4-methoxypyridine-3-carboxylate]",94 nM,288 nM
"COC(=O)c1c(OC)ccnc1N[C@@H]1CC[C@@H](C)N(C(=O)c2cccc(F)c2-c2noc(C)n2)C1 [Example 9, methyl 2-{[(3R,6R)-1-{[3-fluoro-2-(5-methyl-1,2,4-oxadiazol-3-yl)phenyl]carbonyl}-6-methylpiperidin-3-yl]amino}-4-methoxypyridine-3-carboxylate]",57 nM,236 nM
"COC(=O)c1c(OC)ccnc1N[C@@H]1CC[C@@H](C)N(C(=O)c2c(F)cccc2-c2noc(C)n2)C1 [Example 10, methyl 2-{[(3R,6R)-1-{[2-fluoro-6-(5-methyl-1,2,4-oxadiazol-3-yl)phenyl]carbonyl}-6-methylpiperidin-3-yl]amino}-4-methoxypyridine-3-carboxylate]",88 nM,332 nM
"COC(=O)c1c(OC)ccnc1N[C@@H]1CC[C@@H](C)N(C(=O)c2cccc(F)c2-c2ncccn2)C1 [Example 12, methyl 2-({(3R,6R)-1-[(3-fluoro-2-pyrimidin-2-ylphenyl)carbonyl]-6-methylpiperidin-3-yl}amino)-4-methoxypyridine-3-carboxylate]",53 nM,196 nM
"COC(=O)c1c(OC)ccnc1N[C@@H]1CC[C@@H](C)N(C(=O)c2cc(F)ccc2-c2ncccn2)C1 [Example 14, methyl 2-({(3R,6R)-1-[(5-fluoro-2-pyrimidin-2-ylphenyl)carbonyl]-6-methylpiperidin-3-yl}amino)-4-methoxypyridine-3-carboxylate]",51 nM,83 nM
"COC(=O)c1c(OC)ccnc1N[C@@H]1CC[C@@H](C)N(C(=O)c2ccsc2-c2ncccn2)C1 [Example 17, methyl 4-methoxy-2-({(3R,6R)-6-methyl-1-[(2-pyrimidin-2-ylthiophen-3-yl)carbonyl]piperidin-3-yl}amino)pyridine-3-carboxylate]",58 nM,266 nM
"COC(=O)c1c(OC)ccnc1N[C@@H]1CC[C@@H](C)N(C(=O)c2ncccc2-c2ncccn2)C1 [Example 18, methyl 4-methoxy-2-({(3R,6R)-6-methyl-1-[(3-pyrimidin-2-ylpyridin-2-yl)carbonyl]piperidin-3-yl}amino)pyridine-3-carboxylate]",168 nM,338 nM

# Molecules with a lower IC50 (human orexin-2 receptor), results first:
IC50 (human orexin-2 receptor),IC50 (hOX1R),Structure (SMILES)
45 nM,362 nM,"COC(=O)c1c(OC)ccnc1N[C@@H]1CC[C@@H](C)N(C(=O)c2cccc(F)c2-n2nccn2)C1 [Example 4, methyl 2-{[(3R,6R)-1-{[3-fluoro-2-(2H-1,2,3-triazol-2-yl)phenyl]carbonyl}-6-methylpiperidin-3-yl]amino}-4-methoxypyridine-3-carboxylate]"
45 nM,207 nM,"COC(=O)c1c(OC)ccnc1N[C@@H]1CC[C@@H](C)N(C(=O)c2cc(F)ccc2-n2nccn2)C1 [Example 5, methyl 2-{[(3R,6R)-1-{[5-fluoro-2-(2H-1,2,3-triazol-2-yl)phenyl]carbonyl}-6-methylpiperidin-3-yl]amino}-4-methoxypyridine-3-carboxylate]"
44 nM,138 nM,"COC(=O)c1c(OC)ccnc1N[C@@H]1CC[C@@H](C)N(C(=O)c2ccc(F)cc2-c2ncccn2)C1 [Example 13, methyl 2-({(3R,6R)-1-[(4-fluoro-2-pyrimidin-2-ylphenyl)carbonyl]-6-methylpiperidin-3-yl}amino)-4-methoxypyridine-3-carboxylate]"
41 nM,80 nM,"COC(=O)c1c(OC)ccnc1N[C@@H]1CC[C@@H](C)N(C(=O)c2ccccc2-c2ncccn2)C1 [Example 11, Methyl 4-methoxy-2-({(3R,6R)-6-methyl-1-[(2-pyrimidin-2-ylphenyl)carbonyl]piperidin-3-yl}amino)pyridine-3-carboxylate]"
40 nM,402 nM,"COC(=O)c1c(OC)ccnc1N[C@@H]1CC[C@@H](C)N(C(=O)c2sccc2-c2ncccn2)C1 [Example 16, methyl 4-methoxy-2-({(3R,6R)-6-methyl-1-[(3-pyrimidin-2-ylthiophen-2-yl)carbonyl]piperidin-3-yl}amino)pyridine-3-carboxylate]"
38 nM,–,"COC(=O)c1cccnc1N[C@@H]1CC[C@@H](C)N(C(=O)c2ccccc2-n2nccn2)C1 [Example 1, Methyl 2-{[(3R,6R)-6-methyl-1-{[2-(2H-1,2,3-triazol-2-yl)phenyl]carbonyl}piperidin-3-yl]amino}pyridine-3-carboxylate]"
38 nM,66 nM,"COC(=O)c1c(OC)ccnc1N[C@@H]1CC[C@@H](C)N(C(=O)c2c(F)cccc2-c2ncccn2)C1 [Example 15, methyl 2-({(3R,6R)-1-[(2-fluoro-6-pyrimidin-2-ylphenyl)carbonyl]-6-methylpiperidin-3-yl}amino)-4-methoxypyridine-3-carboxylate]"
34 nM,237 nM,"COC(=O)c1c(OC)ccnc1N[C@@H]1CC[C@@H](C)N(C(=O)c2ccccc2-n2ncnn2)C1 [Example 3, Methyl 4-methoxy-2-{[(3R,6R)-6-methyl-1-{[2-(2H-tetrazol-2-yl)phenyl]carbonyl}piperidin-3-yl]amino}pyridine-3-carboxylate]"
25 nM,53 nM,"COC(=O)c1c(OC)ccnc1N[C@@H]1CC[C@@H](C)N(C(=O)c2ccccc2-n2nccn2)C1 [Example 2, Methyl 4-methoxy-2-{[(3R,6R)-6-methyl-1-{[2-(2H-1,2,3-triazol-2-yl)phenyl]carbonyl}-piperidin-3-yl]amino}pyridine-3-carboxylate]"
